Our source for the IC50 values is patent US9315500B2, “Bicyclic heteroaryl cycloalkyldiamine derivatives” (NOVARTIS AG, priority 2012, dated 2016).

In this assay the target is SYK (SYK(2-635)) (Homo sapiens (Human), UniProt P43405). Briefly: SYK enzyme assay (chip based microfluidic mobility shift assay). The class given is biochemical. The following applies: SYK kinase, 4 μM ATP/peptide solution, 30° C., 60 minutes, Caliper mobility shift. On the procedure:
A number of compounds of the present invention were assayed in a chip based microfluidic mobility shift assay. All assays were performed in 384 well microtiter plates. Each assay plate contained 8-point serial dilutions for 40 test compounds, as well as four 8-point serial dilutions of staurosporine as reference compound, plus 16 high- and 16 low controls. Liquid handling and incubation steps were done on a Thermo CatX workstation equipped with a Innovadyne Nanodrop Express. Between pipetting steps, tips were cleaned in wash cycles using wash buffer. The assay plates were prepared by addition of 50 nl per well of compound solution in 90% DMSO. The kinase reactions were started by stepwise addition of 4.5 μl per well of peptide/ATP-solution (50 mM HEPES, pH 7.5, 1 mM DTT, 0.02% Tween20, 0.02% BSA, 0.6% DMSO, 10 mM beta-glycerophosphate, and 10 μM sodium orthovanadate, 1 mM MgCl2, 3 mM MnCl2, 4 μM ATP, 4 μM peptide (5-Fluo-Ahx-GAPDYENLQELNKK-Amid) and 4.5 μl per well of enzyme solution (50 mM HEPES, pH 7.5, 1 mM DTT, 0.02% Tween20, 0.02% BSA, 0.6% DMSO, 10 mM beta-glycerophosphate, and 10 μM sodium orthovanadate, 1 mM MgCl2, 3 mM MnCl2, 4 nM SYK (SYK(2-635), produced in-house from insect cells). Kinase reactions were incubated at 30° C. for 60 minutes and subsequently terminated by addition of 16 μl per well of stop solution (100 mM HEPES pH 7.5, 5% DMSO, 0.1% Caliper coating reagent, 10 mM EDTA, and 0.015% Brij35). Plates with terminated kinase reactions were transferred to the Caliper LC3000 workstations for reading. Phosphorylated and unphosphorylated peptides were separated using the Caliper microfluidic mobility shift technology. Briefly, samples from terminated kinase reactions were applied to the chip. Analytes are transported through the chip by constant buffer flow and the migration of the substrate peptide is monitored by the fluorescence signal of its label. Phosphorylated peptide (product) and unphosphorylated peptide (substrate) are separated in an electric field by their charge/mass ratio. Kinase activities were calculated from the amounts of formed phospho-peptide. IC50 values were determined from percent inhibition values at different compound concentrations by non-linear regression analysis.
Test compounds were dissolved in DMSO (10 mM) and transferred into 1.4 mL flat bottom or V-shaped Matrix tubes carrying a unique 2D matrix. The stock solutions were stored at […] if not used immediately. For the test procedure the vials were defrosted and identified by a scanner whereby a working sheet was generated that guided the subsequent working steps.
Compound dilutions were made in 96 well plates. This format enabled the assay of maximally 40 individual test compounds at 8 concentrations (single points) including 4 reference compounds. The dilution protocol included the production of “pre-dilution plates”, “master plates” and “assay plates”.
Pre-dilution plates: 96 polypropylene well plates were used as pre-dilution plates. A total of 4 pre-dilution plates were prepared including 10 test compounds each on the plate positions A1-A10, one standard compound at A11 and one DMSO control at A12. All dilution steps were done on a HamiltonSTAR robot.
Master plates: 30 μL of individual compound dilutions including standard compound and controls of the 4 “pre-dilution plates” were transferred into a 384 “master plate” including the following concentrations 1′810, 362, 72.5, […], 14.5, 2.9, 0.58 and 0.12 μM, respectively in 90% of DMSO.
Assay plates: Identical “assay plates” were then prepared by pipetting 50 nL each of compound dilutions of the “master plates” into 384-well “assay plates” by means of a HummingBird 384-channel dispenser. These plates were used directly for the assay which was performed in a total volume of 9.05 μL. This led to a final compound concentration of 10, 2.0, 0.4, 0.08, 0.016, 0.0032, 0.00064 and 0.000128 μM and a final DMSO concentration of 0.5% in the assay.

Molecules are shown by their SMILES.

As usually defined, the IC50 is the concentration at which inhibition is half-maximal. For the molecule `N[C@H]1CCCC[C@H]1Nc1cc2cn[nH]c(=O)c2c(Nc2cccc3occc23)n1` [Example 2.6, 7-((1R,2S)-2-Amino-cyclohexylamino)-5-(benzofuran-4-ylamino)-3H-pyrido[3,4-d]pyridazin-4-one], the IC50 was 2 nM.
